This note sets out measurements from patent US10722515B2, “Dual CLK/CDK1 inhibitors for cancer treatment” (SRI INTERNATIONAL, priority 2016, dated 2020).

Bounds are passed on as bounds.

One assay has as its target T1, CDK1/cyclinB(h) (Homo sapiens, UniProt P06493).
T1 construct: purchased Eurofins, Dundee, Scotland
Briefly: radiometric protein kinase assay, CDK1. The format is biochemical. Particulars: enzyme inhibition, ATP 45 μM. The method, then: (§1) Enzymatic biochemical activities were evaluated in radiometric protein kinase assays (Eurofins, Dundee, Scotland). Kinases are incubated with buffer, substrate and [γ-^33P]-ATP (specific activity approx. 500 cpm/pmol, concentration as required). The reaction is initiated by the addition of the MgATP mix. After incubation for 40 minutes at room temperature, the reaction is stopped by the addition of 3% phosphoric acid solution. 10 μL of the reaction is then spotted onto a P30 filtermat and washed three times for 5 minutes in 75 mM phosphoric acid and once in methanol prior to drying and scintillation counting.
(§2) All compounds are prepared to 50× final assay concentration in 100% DMSO. Positive control wells contain all components of the reaction with 2% DMSO. Blank wells contain all components of the reaction, with a reference inhibitor replacing the compound of interest. Each kinase is assigned a standard assay concentration of ATP within 20 μM of its apparent KM. Compounds were screened at 1 μM in duplicate or tested at 10 concentrations at half log dilution starting from 10 μM in singlicate. Dose response curves were fitted with four parameter logistic curve to obtain IC50 values. The average coefficient of variation (CV) of the conducted assay is 4.4%.

The target of a further assay is T2, CDK6/cyclinD3(h) (Homo sapiens, UniProt Q00534).
T2 construct: purchased Eurofins, Dundee, Scotland
T2 sequence (Q00534 whole entry): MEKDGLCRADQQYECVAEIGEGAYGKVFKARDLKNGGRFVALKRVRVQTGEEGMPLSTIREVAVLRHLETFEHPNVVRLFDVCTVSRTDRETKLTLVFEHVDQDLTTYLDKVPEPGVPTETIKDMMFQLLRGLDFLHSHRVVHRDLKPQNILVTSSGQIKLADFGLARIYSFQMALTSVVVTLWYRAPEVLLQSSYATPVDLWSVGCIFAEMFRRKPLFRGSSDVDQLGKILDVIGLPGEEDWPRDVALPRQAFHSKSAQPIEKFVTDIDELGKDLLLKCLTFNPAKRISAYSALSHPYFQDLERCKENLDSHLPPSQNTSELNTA
T2 sequence (P30281 whole entry partner): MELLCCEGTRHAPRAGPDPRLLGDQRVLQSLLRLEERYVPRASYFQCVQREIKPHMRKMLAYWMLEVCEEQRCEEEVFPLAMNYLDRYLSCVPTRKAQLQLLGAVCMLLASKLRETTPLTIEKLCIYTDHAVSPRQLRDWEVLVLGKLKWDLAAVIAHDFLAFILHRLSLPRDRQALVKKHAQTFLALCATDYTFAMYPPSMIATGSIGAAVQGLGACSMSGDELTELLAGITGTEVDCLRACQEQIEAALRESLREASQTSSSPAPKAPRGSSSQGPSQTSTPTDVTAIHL
Briefly: radiometric protein kinase assay, CDK6. Particulars: enzyme inhibition, ATP 20 μM. Type of assay: biochemical. The method, then:
as §1, §2

The next assay concerns the target T3, Aurora-A(h) (Homo sapiens, UniProt O14965).
T3 construct: purchased Eurofins, Dundee, Scotland
T3 sequence (O14965 1-403): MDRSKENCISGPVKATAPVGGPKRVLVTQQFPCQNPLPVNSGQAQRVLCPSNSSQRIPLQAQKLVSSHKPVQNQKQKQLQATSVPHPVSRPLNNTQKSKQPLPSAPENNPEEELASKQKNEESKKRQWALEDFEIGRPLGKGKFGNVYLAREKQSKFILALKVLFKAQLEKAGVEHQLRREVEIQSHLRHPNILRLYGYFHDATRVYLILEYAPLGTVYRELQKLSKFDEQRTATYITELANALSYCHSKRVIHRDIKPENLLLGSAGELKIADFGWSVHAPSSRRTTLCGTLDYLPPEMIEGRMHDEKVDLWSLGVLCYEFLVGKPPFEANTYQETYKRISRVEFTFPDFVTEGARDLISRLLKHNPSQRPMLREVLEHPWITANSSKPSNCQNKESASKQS
Briefly: kinase profile, radiometric assay, Aurora-A. Type of assay: biochemical. The method, then: as §1, §2

In a further assay the target is T4, CDK4/cyclinD3(h) (Homo sapiens, UniProt P11802).
T4 construct: purchased Eurofins, Dundee, Scotland
T4 sequence (P11802 whole entry): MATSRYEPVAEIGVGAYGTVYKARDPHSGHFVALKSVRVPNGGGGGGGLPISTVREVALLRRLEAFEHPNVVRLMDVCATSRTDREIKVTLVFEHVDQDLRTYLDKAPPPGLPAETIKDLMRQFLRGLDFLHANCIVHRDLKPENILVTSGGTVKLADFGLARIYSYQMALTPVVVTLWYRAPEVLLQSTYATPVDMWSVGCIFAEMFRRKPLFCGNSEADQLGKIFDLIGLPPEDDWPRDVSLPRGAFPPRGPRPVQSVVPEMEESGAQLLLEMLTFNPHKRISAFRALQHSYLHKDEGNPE
T4 sequence (P30281 whole entry partner): as the sequence (P30281 whole entry partner) above
Briefly: radiometric protein kinase assay, CDK4. The conditions noted are these: enzyme inhibition, ATP 20 μM. The format is biochemical. Here is the method: as §1, §2

Assay [1] concerns MDM2 alternate splicing in Rh-18 cells. Briefly: Rh-18 MDM2 RT-PCR gel-based assay (orthogonal secondary assay). Type of assay: cell-based. The conditions noted are these: 10 μM, 8 h. The method, then: These hits were then subjected to a confirmatory assay in the Rh-18 MDM2 RT-PCR gel-based assay at a concentration of 10 μM.
Referring to FIG. 6, cells were exposed to 0.5% DMSO, 0.2 μM sudemycin D6 or […] CGP-74514A for 8 h. Total RNA was extracted by RNeasy Mini Kit (Qiagen). High capacity RNA-to-cDNA kit (Life technologies) was used to convert the RNA to cDNA.
Referring to FIG. 7, cells were exposed to 0.5% DMSO (lane 1), 1 μM sudemycin D6 (lane 2), 10 μM Compound 14 (lane 3), and 10 μM Compound 15 (lane 4) for 8 h. The total RNA was extracted by RNeasy Mini Kit (Qiagen). High capacity RNA-to-cDNA kit (Life technologies) was used to convert the RNA to cDNA. […] Ubiquitin transcripts (165 bp) in the same cells were used as a control (Fan et al. (2011) ACS Chem. Biol. 6: 582-9).

For a further assay, the target named is T5, CLK3(h) (Homo sapiens, UniProt P49761).
T5 construct: purchased Eurofins, Dundee, Scotland
T5 sequence (P49761 whole entry): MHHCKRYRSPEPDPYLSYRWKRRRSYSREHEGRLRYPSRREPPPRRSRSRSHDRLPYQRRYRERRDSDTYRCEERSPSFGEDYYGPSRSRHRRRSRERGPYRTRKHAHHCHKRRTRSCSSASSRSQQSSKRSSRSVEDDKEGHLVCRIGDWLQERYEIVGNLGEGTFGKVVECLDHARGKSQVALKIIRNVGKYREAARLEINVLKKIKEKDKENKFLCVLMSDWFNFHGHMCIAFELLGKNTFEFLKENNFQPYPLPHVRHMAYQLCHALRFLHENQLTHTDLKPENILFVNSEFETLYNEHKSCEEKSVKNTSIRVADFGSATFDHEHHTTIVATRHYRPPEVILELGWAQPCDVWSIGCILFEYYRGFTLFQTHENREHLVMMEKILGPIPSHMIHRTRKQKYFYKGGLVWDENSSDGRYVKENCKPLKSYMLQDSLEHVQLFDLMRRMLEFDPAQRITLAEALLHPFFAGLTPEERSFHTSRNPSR
Briefly: radiometric protein kinase assay, CLK3. Type of assay: biochemical. The conditions noted are these: enzyme inhibition, radiometric, ATP 90 μM; read-out: IC50 (nM) CLK3. The method, then: as §1, §2

In a further assay the test system is 22 oncogenic kinases. Briefly: kinase profiling against 22 oncogenic kinases. The format is biochemical, human. Particulars: 1 μM in duplicate. The method, then: as §1, §2

T1 sequence (P06493 whole entry): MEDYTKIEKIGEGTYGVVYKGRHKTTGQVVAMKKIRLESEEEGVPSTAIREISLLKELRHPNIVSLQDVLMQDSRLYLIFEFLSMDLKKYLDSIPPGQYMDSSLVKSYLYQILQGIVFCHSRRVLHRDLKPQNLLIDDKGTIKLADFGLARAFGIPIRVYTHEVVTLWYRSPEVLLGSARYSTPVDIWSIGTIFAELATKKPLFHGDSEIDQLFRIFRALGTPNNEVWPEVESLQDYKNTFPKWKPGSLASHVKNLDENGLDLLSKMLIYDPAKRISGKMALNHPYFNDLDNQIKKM
T1 sequence (P14635 whole entry partner): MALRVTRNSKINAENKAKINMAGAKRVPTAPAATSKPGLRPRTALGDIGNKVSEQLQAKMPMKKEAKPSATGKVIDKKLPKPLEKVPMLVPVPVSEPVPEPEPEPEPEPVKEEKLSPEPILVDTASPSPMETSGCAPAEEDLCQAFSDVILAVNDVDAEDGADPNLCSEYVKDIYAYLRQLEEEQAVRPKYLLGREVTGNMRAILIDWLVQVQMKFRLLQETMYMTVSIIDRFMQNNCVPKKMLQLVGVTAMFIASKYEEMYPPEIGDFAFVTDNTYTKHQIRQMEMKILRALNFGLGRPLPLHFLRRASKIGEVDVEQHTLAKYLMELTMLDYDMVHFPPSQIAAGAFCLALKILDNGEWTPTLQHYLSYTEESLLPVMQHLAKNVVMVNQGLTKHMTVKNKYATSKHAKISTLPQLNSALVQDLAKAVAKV

Regarding `CC(C)n1cnc2c(Nc3cc(N)cc(Cl)c3)nc(NC3CCCCC3N)nc21` (racemic) [Compound 14, Racemic N^6-Cis-(3-Amino-5-Chlorophenyl)-N^2-(2-Aminocyclohexyl)-9-Isopropyl-9H-Purine-2,6-Diamine], the IC50 on CDK1/cyclinB(h) was 973 nM; against CDK6/cyclinD3(h), above 1000 nM; against CDK4/cyclinD3(h) it was above 1000 nM; at CLK3(h), above 1000 nM. For the same molecule, the inhibition at 1 µM against Aurora-A(h) was 13%. Also, the “activity in the Rh-18 MDM2 RT-PCR gel-based confirmatory assay” value in assay [1] is “confirmation”.

As for `CC(C)n1cnc2c(Nc3cccc(Cl)c3)nc(N[C@H]3CCCC[C@@H]3N)nc21` [Compound 8, N^2-((1S,2S)-2-Aminocyclohexyl)-V-(3-Chlorophenyl)-9-Isopropyl-9H-Purine-2,6-Diamine], in the assay on 22 oncogenic kinases, the “inhibition against the entire 22 diverse kinase panel” value is below 50%. Moreover, the inhibition at 1 µM at Aurora-A(h) came to 4%.

In the case of `CC(C)n1cnc2c(Nc3cccc(Cl)c3)nc(N[C@@H]3CCCC[C@@H]3N)nc21` [Compound 9, N^2-((1R,2S)-2-Aminocyclohexyl)-N^6-(3-Chlorophenyl)-9-Isopropyl-9H-Purine-2,6-Diamine], the inhibition at 1 µM on Aurora-A(h) was -5%.

One may read the IC50 as the concentration needed to halve the response being measured. One may read the inhibition as the change of the read-out against control, counted positive when it falls.
